Like-named read-outs stand apart in the source and are kept apart here.
What was measured:
[1] = tested on: CAKI-2, human kidney cell; assay: In vitro cytotoxicity (MTT) on CAKI-2; assay type: cell-based
Method: (§1) This assay was performed to determine the effect of compounds of the present invention on cell cytotoxicity. Cells were incubated in presence or absence of compounds in their respective conditioned media. […] The supernatant was discarded and 100 μl of dimethylsulfoxide (DMSO) was added. Absorbance was read at […] with an ELISA Tecan SUNRISE™ plate reader. The control group consisted of cells without compounds and is referred to as 100% of viable cells. IC50 was determined using PRISM® software.
(§2) The predictive utility of cell-based cytotoxicity assays to assess the potential in vivo anticancer activity of compounds with selected cancer cell lines is well established in the art and the use of whole cells, instead of isolated protein receptors or enzymes, provides a more reliable determination of activity. See, for example, Paull et al. J. Natl. Cancer Inst. 81:1088-1092 (1989); Monks et al. J. Natl. Cancer Inst. 83:757-766 (1991); Bandes et al. J. Natl. Cancer Inst. 86:770-775 (1994); and Kamate et al. Intl. J. Cancer 100:571-579 (2002).

[2] = tested on: PC-3, human prostate carcinoma cell; assay: In vitro cytotoxicity (MTT) on PC-3; assay type: cell-based
Method: as §1, §2

[3] = tested on: NHDF, Normal Human Dermal Fibroblast; assay: In vitro cytotoxicity (MTT) on NHDF; assay type: cell-based
Method: as §1, §2

[4] = tested on: Hep-G2, human liver cell; assay: In vitro cytotoxicity (MTT) on Hep-G2; assay type: cell-based
Method: as §1, §2

[5] = tested on: B16F10 primary tumors; assay: Antitumor effects on a primary B16F10 melanoma tumor; assay type: in vivo, C57BL/6 mice; conditions: 50 mg/kg i.v. on day 14, 16 and 18
Method: Female 6-8 week old C57BL/6 mice were injected intradermally on day 0 with 3.75×10^4 B16F10 melanoma cells from ATCC (source of cell culture, Dr. I. J. Fidler). On day 14, tumors reached […] and animals were randomized for treatments. Animals were then injected i.v. with saline (negative control) or compounds (50 mg/kg) on day 14, 16 and 18 or 10 mg/kg doxorubicin (Dox, positive control) on day 14. Mice were sacrificed on day 29. Body weight and tumor volume were recorded. Serial tumor volume was obtained by bi-dimensional diameter measurements with calipers, using the formula 0.4 (a×b^2) where “a” was the major tumor diameter and “b” the minor perpendicular diameter.
T/C is calculated as (Treated tumor volume/Control tumor volume)×100%. Compound 2 induced a weak reduction (T/C around 70%) of the tumor volume compared to the control.

[6] = tested on: B16F10, murine melanoma cell; assay: In vitro cytotoxicity (MTT) on B16F10; assay type: cell-based; conditions: Mus musculus, B16-F10
Method: as §1, §2

[7] = tested on: PBML, Peripheral Blood Mononuclear Leukocytes; assay: In vitro cytotoxicity (MTT) on PBML; assay type: cell-based; conditions: Leukocyte
Method: as §1, §2

[8] = tested on: DA-3; assay: In vitro cytotoxicity (MTT) on DA-3; assay type: cell-based, BALB/c mice; conditions: Mus musculus
Method: as §1, §2
(§3) The syngeneic tumor DMBA3 (DA-3, breast carcinoma model) arose from a preneoplastic lesion treated with 7,12-dimethylbenzanthracene in female BALB/c mice. DA-3 cells were grown as monolayer cultures in plastic flasks in RPMI-1640 containing 0.1 mM nonessential amino acids, 0.1 μM sodium pyruvate, 2 mM L-glutamine. This was further supplemented with 50 μM 2-mercaptoethanol and 10% fetal bovine serum. The DA-3 tumors were serially passage in vivo by intradermal inoculation of 5×10^5 viable tumor cells to produce localized tumors in 6- to 8-week old BALB/c mice. The animals were then serially monitored by manual palpation for evidence of tumor. Mice were treated at day 11, 18 and 25 with cyclophosphamide (100 mg/kg) and at day 11, 12, 13, 15, 18, 20, 22, 25, 27 and 29 with compound 1, 2, 3 or 8 (50 mg/kg). Mice were sacrificed at day 43. Serial tumor volume was obtained by bi-dimensional diameter measurements with calipers, using the formula 0.4 (a×b^2) where “a” was the major tumor diameter and “b” the minor perpendicular diameter. […] The National Cancer Institute (USA) defines the product as effective if T/C is ≦40%.

[9] = tested on: DA-3 breast tumors; assay: Antitumor effects on a primary DA-3 breast tumor; assay type: in vivo, BALB/c mice
Method: as §3
In other trials, mice were treated with one intratumoral injection of compound 2 or cyclophosphamide (three doses) or intratumoral injection of compound 2 in combination with cyclophosphamide.

[10] = tested on: B16F10 lung metastases; assay type: in vivo; conditions: for inhibition of the number of tumor nodules in lungs: FIG. 3, 50 mg/kg i.v. on day -3, -2, -1, 3, 5 and 7, p<0.001; for reduction of the number of tumor nodules: FIG. 4
Method: Female 6-8-week old C57BL/6 mice were injected intravenously on day 0 with 1-2.5×10^5 B16F10 melanoma cells from ATCC (source of cell culture, Dr. I. J. Fidler). B16F10 melanoma cells are a highly metastatic cell line which preferentially forms nodules in the lungs. Cells were cultured in DMEM supplemented with 10% fetal bovine serum. […] Fourteen days after inoculation, mice were sacrificed and their lungs were removed, rinsed in PBS, and placed in Bouin's fixative. The number of metastatic nodules (black colonies) on the surface of the lungs were counted.

[11] = tested on: P815, murine mastocytoma cell; assay: In vitro cytotoxicity (MTT) on P815; assay type: cell-based; conditions: Mus musculus
Method: as §1, §2

[12] = FIG. 8, combination of cyclophosphamide and intratumoral injection of compound 2

Structure (SMILES) | IC50 ([2]; 24-hour cell culture) | IC50 ([2]; 72-hour cell culture) | IC50 ([3]; 24-hour cell culture) | IC50 ([3]; 72-hour cell culture) | IC50 ([6]; 24-hour cell culture) | IC50 ([7]; 24-hour cell culture) | IC50 ([7]; 72-hour cell culture) | IC50 ([8]; 24-hour cell culture) | inhibition of the number of tumor nodules in lungs [10] | IC50 ([11]; 24-hour cell culture) | IC50 ([11]; 72-hour cell culture) | other results
Nc1ccc(CCNc2nc(Nc3ccc(CCNc4nc(NCCO)nc(Nc5cccc(N)c5)n4)cc3)nc(Nc3cccc(N)c3)n2)cc1 [Compound 2] | 2.3 µM | 4 µM | > 100 µM | 16 µM | 1000 nM | > 100 µM | 10 µM | 2000 nM | significant inhibition | 66.5 µM | 2.2 µM | IC50 ([1]; 24-hour cell culture): > 40 µM; IC50 ([1]; 72-hour cell culture): > 40 µM; IC50 ([4]; HepG2, 24-hour cell culture): > 40 µM; IC50 ([4]; HepG2, 72-hour cell culture): > 40 µM; T/C (Treated tumor volume/Control tumor volume) ([5]; FIG. 1 trial): around 70%; IC50 ([6]; 72-hour cell culture): 1000 nM; IC50 ([8]; 72-hour cell culture): 1900 nM; T/C, inhibition of tumor volume [9, 12]: 10%; total tumor regressions at day 46 [9, 12]: four; total tumor regression at day 46 ([9]; FIG. 8, one intratumoral injection of compound 2 alone): one; reduction of the number of tumor nodules ([10]; compound 2 in combination with doxorubicin (1 mg/kg)): 95%; reduction of the number of tumor nodules ([10]; used alone, compound 50 mg/kg i.v., doxorubicin 1 mg/kg): 87%
Nc1ccc(CCNc2nc(NCCCCO)nc(Nc3cccc(N)c3)n2)cc1 [Compound 8] | 94 µM | 100 µM | > 100 µM | > 100 µM | 33000 nM | > 100 µM | > 100 µM | 85000 nM | significant inhibition | > 100 µM | 92 µM | T/C (Treated tumor volume/Control tumor volume) ([5]; FIG. 2 trial): around 70%; inhibition of the tumor volume ([9]; FIG. 6, 50 mg/kg): All compounds except compound 8 induced a significant inhibition
